This passage reports Ki results from patent US10562850B2, “Human plasma kallikrein inhibitors” (priority 2015, dated 2020).

pKi: −log10 of the molar value.

The target of the experiment is human plasma kallikrein (Homo sapiens (Human), UniProt P03952). Put plainly: Plasma Kallikrein Activity Assay (chromogenic substrate S2302). In kind it is biochemical. The following applies: 2 nM kallikrein, 80 μM S2302, 30° C., pH 7.8; Cheng-Prusoff. How it is done: Plasma Kallikrein Activity Assay.
Sequence of human plasma kallikrein (P03952 391-638): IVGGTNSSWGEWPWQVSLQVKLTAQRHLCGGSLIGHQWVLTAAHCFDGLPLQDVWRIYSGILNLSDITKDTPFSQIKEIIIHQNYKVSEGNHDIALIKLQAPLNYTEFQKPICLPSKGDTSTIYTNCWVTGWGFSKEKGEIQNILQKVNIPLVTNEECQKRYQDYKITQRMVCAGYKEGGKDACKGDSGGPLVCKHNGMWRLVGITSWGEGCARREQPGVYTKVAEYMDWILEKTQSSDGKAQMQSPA
Sequence of human plasma kallikrein (P03952 20-390 partner): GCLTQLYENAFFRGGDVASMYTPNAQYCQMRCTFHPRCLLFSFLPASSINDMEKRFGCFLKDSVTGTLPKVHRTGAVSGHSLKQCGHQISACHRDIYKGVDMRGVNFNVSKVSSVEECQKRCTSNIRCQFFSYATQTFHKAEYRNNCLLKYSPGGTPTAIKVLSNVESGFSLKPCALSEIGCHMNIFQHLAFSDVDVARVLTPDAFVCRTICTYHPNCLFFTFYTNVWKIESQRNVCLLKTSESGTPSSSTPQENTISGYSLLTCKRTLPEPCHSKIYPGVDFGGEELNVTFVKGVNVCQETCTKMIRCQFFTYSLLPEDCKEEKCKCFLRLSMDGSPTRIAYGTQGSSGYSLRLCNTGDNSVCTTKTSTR
The effect of compounds of the invention on human plasma kallikrein activity was determined using the chromogenic substrates (DiaPharma Group, Inc., West Chester, Ohio, USA). In these experiments, 2 nM kallikrein (Enzyme Research Laboratories, South Bend, Ind., USA) was incubated with 80 μM S2302 (H-D-Pro-Phe-Arg-p-nitroaniline) in the absence or presence of increasing concentrations of compounds of the invention in a final volume of 200 μL Tris-HCl buffer (200 mM NaCl; 2.5 mM CaCl2; 50 mM Tris-HCl, pH 7.8).
After incubation at 30° C., the activity of kallikrein was measured as a change in absorbance at OD 405 nm using BioTek PowerWave X340 Microplate Reader (Winooski, Vt., USA). Data were analyzed using SigmaPlot software (Systat Software, Inc., San Jose, Calif., USA) (Four Parameter Logistic Curve). Ki values for the inhibitors were determined using the Cheng-Prusoff equation (Biochem. Pharmacol. 1973, 22, 3099).
For the compound `O=C(Nc1cc(C(NCC2CC2)c2ccccc2)ccc1F)[C@H]1C[C@@H](O)CN1C(=O)Nc1ccc(Cl)cc1` (stereo partly drawn) [Compound 1p, (2R,4R)-N1-(4-chlorophenyl)-N2-(5-(((cyclopropylmethyl)amino)(phenyl)methyl)-2-fluorophenyl)-4-hydroxypyrrolidine-1,2-dicarboxamide], the pKi (in general, the negative decadic logarithm of the Ki, by convention in mol/L) was less than 7.00.

As to `O=C(Nc1ccccc1F)[C@H]1C[C@@H](O)CN1C(=O)Nc1ccc(Cl)cc1` [Compound 2a, (2R,4R)-N1-(4-chlorophenyl)-N2-(2-fluorophenyl)-4-hydroxypyrrolidine-1,2-dicarboxamide], the pKi is less than 7.00.

`O=C(Nc1cc(C(NCC2CC2)c2ccccc2)ccc1F)[C@H]1C[C@@H](O)CN1C(=O)Nc1ccc(Cl)cc1` (stereo partly drawn) [Compound 3a, (2R,4R)-N1-(4-chlorophenyl)-N2-(5-((+)-(cyclopropylmethylamino)(phenyl)methyl)-2-fluorophenyl)-4-hydroxypyrrolidine-1,2-dicarboxamide] had a negative-log Ki (pKi) of 7.00 to 7.30.

`CC(C)(C)[S@@+]([O-])NC(CCC1CC1)(c1cccc(C#N)c1)c1ccc(F)c(NC(=O)[C@H]2C[C@@H](O)CN2C(=O)Nc2ccc(Cl)cc2)c1` (stereo partly drawn) [Compound 4f, (2R,4R)-N1-(4-chlorophenyl)-N2-(5-((−)-1-(3-cyanophenyl)-3-cyclopropyl-1-((R)-1,1-dimethylethylsulfinamido)propyl)-2-fluorophenyl)-4-hydroxypyrrolidine-1,2-dicarboxamide] gave a pKi of 7.00 to 7.30.

For `N#Cc1cccc(C(N)(CCC2CC2)c2ccc(F)c(NC(=O)[C@H]3C[C@@H](O)CN3C(=O)Nc3ccc(Cl)cc3)c2)c1` (stereo partly drawn) [Compound 4g, (2R,4R)-N2-(5-((+)-1-amino-1-(3-cyanophenyl)-3-cyclopropylpropyl)-2-fluorophenyl)-N1-(4-chlorophenyl)-4-hydroxypyrrolidine-1,2-dicarboxamide], the pKi is 7.00 to 7.30.

For the compound `CC(C)(C)[S@@+]([O-])NC(CCC1CC1)(c1cccc(C#N)c1)c1ccc(F)c(NC(=O)[C@@H]2C[C@@H](O)CN2C(=O)Nc2ccc(Cl)cc2)c1` (stereo partly drawn) [Compound 5d, (2S,4R)-N1-(4-chlorophenyl)-N2-(5-((−)-1-(3-cyanophenyl)-3-cyclopropyl-1-((R)-1,1-dimethylethylsulfinamido)propyl)-2-fluorophenyl)-4-hydroxypyrrolidine-1,2-dicarboxamide], the pKi was less than 7.00.

Regarding `N#Cc1cccc(C(N)(CCC2CC2)c2ccc(F)c(NC(=O)[C@@H]3C[C@@H](O)CN3C(=O)Nc3ccc(Cl)cc3)c2)c1` (stereo partly drawn) [Compound 5e, (2S,4R)-N2-(5-((−)-1-amino-1-(3-cyanophenyl)-3-cyclopropylpropyl)-2-fluorophenyl)-N1-(4-chlorophenyl)-4-hydroxypyrrolidine-1,2-dicarboxamide], the pKi is less than 7.00.

Take `CO[C@@H]1C[C@H](C(=O)Nc2cc(C(CCC3CC3)(N[S@+]([O-])C(C)(C)C)c3cccc(C#N)c3)ccc2F)N(C(=O)N(C)c2ccc(Cl)cc2)C1` (stereo partly drawn) [Compound 6c, (2R,4R)-N1-(4-chlorophenyl)-N2-(5-((−)-1-(3-cyanophenyl)-3-cyclopropyl-1-((R)-1,1-dimethylethylsulfinamido)propyl)-2-fluorophenyl)-4-methoxy-N1-methylpyrrolidine-1,2-dicarboxamide]: the pKi was less than 7.00.

`CO[C@@H]1C[C@@H](C(=O)Nc2cc(C(CCC3CC3)(N[S@+]([O-])C(C)(C)C)c3cccc(C#N)c3)ccc2F)N(C(=O)N(C)c2ccc(Cl)cc2)C1` (stereo partly drawn) [Compound 6d, (2S,4R)-N1-(4-chlorophenyl)-N2-(5-(1-(3-cyanophenyl)-3-cyclopropyl-1-((R)-1,1-dimethylethylsulfinamido)propyl)-2-fluorophenyl)-4-methoxy-N1-methylpyrrolidine-1,2-dicarboxamide] showed a pKi of less than 7.00.

The compound `CO[C@@H]1C[C@H](C(=O)Nc2cc(C(N)(CCC3CC3)c3cccc(C#N)c3)ccc2F)N(C(=O)N(C)c2ccc(Cl)cc2)C1` (stereo partly drawn) [Compound 6e, (2R,4R)-N2-(5-((−)-1-amino-1-(3-cyanophenyl)-3-cyclopropylpropyl)-2-fluorophenyl)-N1-(4-chlorophenyl)-4-methoxy-N1-methylpyrrolidine-1,2-dicarboxamide] showed a pKi of less than 7.00.

The compound `CO[C@@H]1C[C@@H](C(=O)Nc2cc(C(N)(CCC3CC3)c3cccc(C#N)c3)ccc2F)N(C(=O)N(C)c2ccc(Cl)cc2)C1` (stereo partly drawn) [Compound 6f, (2S,4R)-N2-(5-((+)-1-amino-1-(3-cyanophenyl)-3-cyclopropylpropyl)-2-fluorophenyl)-N1-(4-chlorophenyl)-4-methoxy-N1-methylpyrrolidine-1,2-dicarboxamide] gave a pKi of less than 7.00.

In turn, `CC(C)(C)[S@@+]([O-])NC(CCC1CC1)(c1cccc(C#N)c1)c1ccc(F)c(NC(=O)[C@H]2CCCN2C(=O)Nc2ccc(Cl)cc2)c1` (stereo partly drawn) [Compound 7b, (R)-N1-(4-chlorophenyl)-N2-(5-((+)-1-(3-cyanophenyl)-3-cyclopropyl-1-((R)-1,1-dimethylethylsulfinamido)propyl)-2-fluorophenyl)pyrrolidine-1,2-dicarboxamide] showed a pKi of less than 7.00.

`N#Cc1cccc(C(N)(CCC2CC2)c2ccc(F)c(NC(=O)[C@H]3CCCN3C(=O)Nc3ccc(Cl)cc3)c2)c1` (stereo partly drawn) [Compound 7c, (R)-N2-(5-((+)-1-amino-1-(3-cyanophenyl)-3-cyclopropylpropyl)-2-fluorophenyl)-N1-(4-chlorophenyl)pyrrolidine-1,2-dicarboxamide] showed a pKi of less than 7.00.

Take `CC(C)(C)[S@@+]([O-])NC(CCC1CC1)(c1cccc(C#N)c1)c1ccc(F)c(NC(=O)[C@@H]2CCCN2C(=O)Nc2ccc(Cl)cc2)c1` (stereo partly drawn) [Compound 8b, (S)-N1-(4-chlorophenyl)-N2-(5-((−)-1-(3-cyanophenyl)-3-cyclopropyl-1-((R)-1,1-dimethylethylsulfinamido)propyl)-2-fluorophenyl)pyrrolidine-1,2-dicarboxamide]: the pKi was less than 7.00.

`N#Cc1cccc(C(N)(CCC2CC2)c2ccc(F)c(NC(=O)[C@@H]3CCCN3C(=O)Nc3ccc(Cl)cc3)c2)c1` (stereo partly drawn) [Compound 8c, (S)-N2-(5-((−)-1-amino-1-(3-cyanophenyl)-3-cyclopropylpropyl)-2-fluorophenyl)-N1-(4-chlorophenyl)pyrrolidine-1,2-dicarboxamide] had a pKi of less than 7.00.

As for `CC(C)(C)[S@@+]([O-])NC(CCC1CC1)(c1cccc(C#N)c1)c1ccc(F)c(NC(=O)[C@H]2C[C@H](O)CN2C(=O)Nc2ccc(Cl)cc2)c1` (stereo partly drawn) [Compound 9b, (2R,4S)-N1-(4-chlorophenyl)-N2-(5-((+)-1-(3-cyanophenyl)-3-cyclopropyl-1-((R)-1,1-dimethylethylsulfinamido)propyl)-2-fluorophenyl)-4-hydroxypyrrolidine-1,2-dicarboxamide], the pKi is less than 7.00.

For `N#Cc1cccc(C(N)(CCC2CC2)c2ccc(F)c(NC(=O)[C@H]3C[C@H](O)CN3C(=O)Nc3ccc(Cl)cc3)c2)c1` (stereo partly drawn) [Compound 9c, (2R,4S)-N2-(5-((+)-1-amino-1-(3-cyanophenyl)-3-cyclopropylpropyl)-2-fluorophenyl)-N1-(4-chlorophenyl)-4-hydroxypyrrolidine-1,2-dicarboxamide], the pKi was less than 7.00.

`CC(C)(C)[S@@+]([O-])NC(CCC1CC1)(c1cccc(C#N)c1)c1ccc(F)c(NC(=O)[C@@H]2C[C@H](O)CN2C(=O)Nc2ccc(Cl)cc2)c1` (stereo partly drawn) [Compound 10b, (2S,4S)-N1-(4-chlorophenyl)-N2-(5-((−)-1-(3-cyanophenyl)-3-cyclopropyl-1-((R)-1,1-dimethylethylsulfinamido)propyl)-2-fluorophenyl)-4-hydroxypyrrolidine-1,2-dicarboxamide]: the pKi was less than 7.00.

`N#Cc1cccc(C(N)(CCC2CC2)c2ccc(F)c(NC(=O)[C@@H]3C[C@H](O)CN3C(=O)Nc3ccc(Cl)cc3)c2)c1` (stereo partly drawn) [Compound 10c, (2S,4S)-N2-(5-((−)-1-amino-1-(3-cyanophenyl)-3-cyclopropylpropyl)-2-fluorophenyl)-N1-(4-chlorophenyl)-4-hydroxypyrrolidine-1,2-dicarboxamide] showed a negative-log Ki (pKi) of less than 7.00.

`CO[C@H]1C[C@@H](C(=O)Nc2cc(C(CCC3CC3)(N[S@+]([O-])C(C)(C)C)c3cccc(C#N)c3)ccc2F)N(C(=O)Nc2ccc(Cl)cc2)C1` (stereo partly drawn) [Compound 11d, (2S,4S)-N1-(4-chlorophenyl)-N2-(5-(1-(3-cyanophenyl)-3-cyclopropyl-1-((R)-1,1-dimethylethylsulfinamido)propyl)-2-fluorophenyl)-4-methoxypyrrolidine-1,2-dicarboxamide] gave a pKi of less than 7.00.

Compound `CO[C@H]1C[C@@H](C(=O)Nc2cc(C(N)(CCC3CC3)c3cccc(C#N)c3)ccc2F)N(C(=O)Nc2ccc(Cl)cc2)C1` (stereo partly drawn) [Compound 11e, (2S,4S)-N2-(5-((−)-1-amino-1-(3-cyanophenyl)-3-cyclopropylpropyl)-2-fluorophenyl)-N1-(4-chlorophenyl)-4-methoxypyrrolidine-1,2-dicarboxamide] gave a pKi of less than 7.00.

Regarding `CC(C)(C)[S@@+]([O-])NC(CCC1CC1)(c1cccc(C#N)c1)c1ccc(F)c(NC(=O)[C@H]2CCCN2C(=O)OCc2ccccc2)c1` (stereo partly drawn) [Compound 12b, (R)-benzyl 2-(5-((−)-1-(3-cyanophenyl)-3-cyclopropyl-1-((R)-1,1-dimethylethylsulfinamido)propyl)-2-fluorophenylcarbamoyl)pyrrolidine-1-carboxylate], the pKi was less than 7.00.

Regarding `N#Cc1cccc(C(N)(CCC2CC2)c2ccc(F)c(NC(=O)[C@H]3CCCN3C(=O)Nc3ccc(Cl)cn3)c2)c1` (stereo partly drawn) [Compound 13e, (R)-N2-(5-((+)-1-amino-1-(3-cyanophenyl)-3-cyclopropylpropyl)-2-fluorophenyl)-N1-(5-chloropyridin-2-yl)pyrrolidine-1,2-dicarboxamide], the pKi was less than 7.00.
